From ChEMBL document CHEMBL1158728, “Makaluvic acids from the South African latrunculid sponge Strongylodesma aliwaliensis” (J Nat Prod, 2005)

test: Cytotoxicity against human WHCO1 cells after 48 hrs by MTT assay; assay type: functional, cell-based; settings: WHCO1, 48 h

| SMILES | IC50 |
| --- | --- |
| NC1=CC2=NCCc3cn([C@@H]4O[C@H](CO)[C@@H](O)[C@H]4O)c(c32)C1=O | 1.6 µM |
| O=C(O)c1[nH]cc2c1C(=O)NCC2 [MAKALUVIC ACID C] | > 150 µM |
| O=C1C=C2NCCc3cn([C@@H]4O[C@H](CO)[C@@H](O)[C@H]4O)c(c32)C1=O | 38 µM |
| O=C1NCCc2cn([C@@H]3O[C@H](CO)[C@@H](O)[C@H]3O)c(C(=O)O)c21 | 61 µM |
| O=C1C=C2NCCc3c[nH]c(c32)C1=O [DAMIRONE C] | 56 µM |
| O=C1C(N/C=C/c2ccc(O)cc2)=CC2=NCCc3c[nH]c1c32 [MAKALUVAMINE M] | 0.7 µM |
